Experimental findings from patent US20140187594A1, “DIPHENYL ETHER COMPOUNDS FOR THE TREATMENT OF LIVER, LUNG DISORDERS, DIABETIC COMPLICATIONS AND CARDIOVASCULAR DISEASES” (ORCHID CHEMICALS AND PHARMACEUTICALS LTD, priority 2010, published 2014) are described below.

Assay [1] relates to TNF-α. Kind of assay: LPS induced TNF-α level in NAFLD/NASH mice. The class given is in vivo. The following applies: 100 mg/kg orally 28 days, LPS 500 μg/animal i.p., FIG. 28. The source says: To develop NAFLD/NASH model, the same protocol was followed as mentioned in Experiment-2. After induction, animals were further grouped as follows. Animals fed normal chow diet (n=10) served as a normal control (Group I) and animals fed HFD and HFL were further divided into two groups as disease control (Group II) (n=10) and treatment group (Group III) (n=9). Duration of the treatment was 28 days. During this period Group I and Group II animals were received water as vehicle and Group III animals were treated with compound of formula (A) 100 mg/kg orally. On 27th day, animals were kept for 12 hours fasting and on 28th day, after 60 minutes of treatment, animals were challenged with LPS (500 μg/animal) by intraperitoneal route. Then after 90 minutes of LPS challenge, blood collection was carried out, plasma and serum were separated and stored at −80° C. in deep freezer for further analysis. Following blood collection, animals were sacrificed; liver, inguinal and epididymal fats were collected and weighed.
(§1) The parameters like Glucose, ALT, AST, TC, TG (Clinical chemistry analyzer Erba XL 300), insulin (Linco®-CA, Product code: EZRMI-13K) and TNFα (GE Healthcare, Amersham, UK. Product code: RPN2718) were measured using commercially available kits. NEFA was measured in serum using commercially available NEFA C kit (Product code No: 279-75401, Wako pure chemical industries ltd., Japan).

Assay [2] concerns acute alcohol induced hypertriglyceridemic mice. As to the kind of experiment: Acute alcohol induced hypertriglyceridemia. The class given is in vivo, C57BL/6 mice. The following applies: (A) 100 mg/kg, disodium salt of (C) 30 mg/kg p.o., seven days, 40% alcohol challenge; FIG. 33. The protocol:
Male C57BL/6 mice aged 6-8 weeks, and body weight ranges between 22-28 g were used for this study. Animals were divided into four groups (n=8) and fed normal chow feed (Nutri Lab® Rodent, Tetragon Chemie Pvt. Ltd., Bangalore) and drinking water. The Group I and Group II animals were served as a normal and disease control treated with vehicle. Group III (n=8) and Group IV (n=8) animals were treated with compound of formula (A) and disodium salts of compound of formula (C) at 100 and 30 mg/kg p.o respectively for seven days. On 7th day one hour post administration of compounds Group II, Group III and Group IV animals were challenged with 40% alcohol (10 ml/kg b.w) p.o. Eighteen hours post challenge animals were bled, plasma separated and used for biochemical parameter analysis.
as §1

The test system of assay [3] is NAFLD/NASH mice. Kind of assay: Supranutritional diet induced NAFLD/NASH (and DIO/NAFLD) models. The class given is in vivo, C57BL/6 mice. How it is done: A rodent obese and NAFLD model was developed by feeding supranutritional diet, which simulates several features of human obesity and NAFLD. These features were treated as mentioned below. […] C57BL/6 male mice aged at 6-8 weeks, body weight ranges between 16-22 g were used for this study. Animals were divided into two groups. First group (n=8, where n refers to number of animals) was treated as a normal control fed with chow feed (Nutri Lab® Rodent, Tetragon Chemie Pvt. Ltd., Bangalore) and the second group (n=20) was treated with 60 Kcal % high fat diet (HFD) (Research Diets, New Brunswick, N.J., Cat# D12492 with blue dye) for 90 days. Animals were selected based on their body weight. The Animals fed with normal chow diet (n=8) served as normal control (Group I) and animals fed with HFD were divided into two groups as DIO/NAFLD control (Group II) (n=10), and Group III (n=9) treated with compound formula (A) at 100 mg/kg for 28 days. During this period, animal body weight and feed intake was recorded daily.
A rodent NAFLD/NASH model was developed by feeding supranutritional diet which simulates several features of human NAFLD/NASH. These features were treated as mentioned below. Fifty C57BL/6 male mice aged 6-8 weeks, and body weight ranges between 16-36 g were used for this study. Animals were divided into two groups, first group (n=10) treated as a normal control, was fed with chow feed (Nutri Lab® Rodent, Tetragon Chemie Pvt. Ltd., Bangalore) and the second group (n=40) fed with 60 Kcal % HFD (Research Diets, New Brunswick, N.J., Cat# D12492 with blue dye) and 40% high fructose liquid (HFL) for 60 days. After 45 days, two animals from disease induction and normal control groups were sacrificed; liver histopathology examination was carried out to confirm the induction of NAFLD/NASH. Animals fed with normal chow diet served as a normal control (Group I) and animals fed HFD and HFL were divided into three groups (n=6-8) as NAFLD/NASH control (Group II), Group III and Group IV were dosed with compound of formula (A) and Metformin at 100 and 350 mg/kg p.o respectively for 28 days. On 28th day, animals were kept 12 hours fasting and 29th day blood was collected, plasma separated and used for biochemical and compound concentration analysis. The animals were then sacrificed. Liver was collected and weighed. Liver tissues were used for compound concentration analysis, triglycerides estimation and histopathology examination. Gross pathology of liver was also observed. Experiment-3: Effect of Compound of formula (A) in NAFLD/NASH mice
The experiment-2 protocol was followed. There compound of formula (A) was compared with other antidiabetic compounds (Figures-8-13).
To develop NAFLD/NASH model, the same protocol was followed as mentioned in Experiment-2. At the end of induction period the animals were grouped as follows. Animals fed with normal chow diet (n=9) served as Normal control (Group 1) and animals fed HFD and HFL were divided into four groups (n=9-12) as NAFLD/NASH control (Group II), Groups III, IV, and V were treated with compound of formula (A) at 10, 30 and 100 mg/kg p.o. respectively for 28 days. After 28 days of treatment animals were kept for 12 hours fasting and blood was collected for biochemical estimations. Following blood collection, animals were sacrificed, liver was collected and weighed. Liver tissues were used for compound concentration analysis, TG estimation and histopathological examination. Gross pathology of liver was also observed. […]

Each structure is given as a SMILES string. “Also recorded” adds a separate entry of the source.

For `COC(=O)[C@@H](N)Cc1ccc(Oc2ccc(CC3SC(=O)NC3=O)cc2)cc1` (stereo partly drawn) [Compound of formula (A), Methyl(2S)-2-amino-3-(4-{4-[(2,4-dioxo-1,3-thiazolidin-5-yl)methyl]phenoxy}phenyl)propanoate], in assay [1], the TNF-α levels result is on record as “reduction”. Further, the “plasma TG” value in assay [2] was “significant reduction in TG”. The “liver histopathology (Hepatic steatosis)” value in assay [3] ((A) up to 100 mg/kg, disodium salt of (C) 30 mg/kg p.o., 28 days, FIGS. 6, 7, 12, 13, 19, 20, 21, 24, 25, 30, 31 & 32) is reported as “reduction; also recorded: improvement in liver histopathology”. Moreover, in assay [3] (vs untreated disease control, FIG. 17), the “plasma AST” value was “reduction”. In addition, the body weight entry in assay [3] (vs untreated disease control, FIGS. 1, 2, 8, 16 & 23) is “reduction in body weight”. Moreover, the “glucose (fasted)” value in assay [3] (vs untreated disease control, FIGS. 5 & 9) was “reduction”. In addition, the “plasma ALT” value in assay [3] (vs untreated disease control, FIGS. 10 & 18) was “reduction”.
